Measured values reported in US20160045687A1, “NASAL ADMINISTRATION” (OPTINOSE AS, priority 2013, published 2016).
Structures can show the parent of a compound that is named as a salt. Where two headings read alike, the source gives them in different places.

Key:
[1] = cited from earlier work
[2] = system: cultured rat trigeminal ganglion cells; settings: carbon dioxide treatment of cultures under isohydric conditions; cited from earlier work
episodic migraine = settings: continuous carbon dioxide infusion; cited from earlier work
[3] = Fluticasone bioavailability at higher Breath Powered doses; format: in vivo, human; settings: 400 ug or 800 ug twice daily as compared to 200 ug daily conventionally
[4] = system: chronic rhinosinusitis (CRS) with nasal polyps; experiment: Example #10: 3-month placebo controlled study of fluticasone with Breath Powered liquid device; format: in vivo, human
[5] = system: post-surgical recalcitrant CRS without polyps; experiment: Example #11: placebo controlled study of fluticasone with Breath Powered liquid device; format: in vivo, human; settings: 12 weeks
Protocol: Using the same drug-device combination product as Example #10, a small placebo controlled study (N=20) was performed in patients with post-surgical recalcitrant CRS without polyps, producing clinically significant improvements on both objective measures and subjective symptoms.

single migraine attack = experiment: Example #1: headache relief after 16 mg intranasal Breath Powered sumatriptan vs 100 mg oral sumatriptan; format: in vivo, human
Excerpt: The purpose of this study was to study the onset of headache relief following a dose of sumatriptan. The study population included 436 subjects.
Headache relief is defined as a reduction from moderate (grade 2) or severe (grade 3) to none (grade 0) or mild (grade 1) pain.

[6] = Example #3: sumatriptan PK in nitroglycerin (GTN)-induced migraine vs healthy subjects; settings: human, in vivo, Breath Powered device
migraine headaches = experiment: Examples #4/#7: double-blind crossover head-to-head study, Breath Powered sumatriptan vs 100 mg tablet, blinded pooled data; format: in vivo, human; settings: 16 mg nasal with placebo tablet; scenario inferred from blinded data
Protocol: The study is a cross-over design where each patient enrolled will treat headaches with each of the treatments. Specifically, patients will treat up to 5 headaches with a treatment and then cross over to treat up to 5 headaches with the other. With each headache, the patient uses the device and takes a tablet, only one of which will be active. From data on over 400 headaches, as yet unblinded, the results obtained at the 30 min timepoint (headache relief 30 minutes after taking medication) for moderate or severe headaches is 54%.
One set of data include blinded head-to-head (H2H) results. They generally show a high response rate In blinded data, i.e., a reduction from severe/moderate migraine or mild or none.

CN1C[C@H](C(=O)N[C@]2(C)O[C@@]3(O)[C@@H]4CCCN4C(=O)[C@H](Cc4ccccc4)N3C2=O)C[C@@H]2c3cccc4[nH]cc(c34)C[C@H]21 [DHE, dihydroergotamine mesylate]
bioavailability ([1]; administered intranasally): ~40%
bioavailability ([1]; given orally): less than 1%

O=C=O [carbon dioxide]
effect on CGRP secretion [2]: significantly repressed the stimulatory effects of KCI, capsaicin, and nitric oxide on CGRP secretion
2-hour pain free response (episodic migraine): 25.0%

C[C@@H]1C[C@H]2[C@@H]3C[C@H](F)C4=CC(=O)C=C[C@]4(C)[C@@]3(F)[C@@H](O)C[C@]2(C)[C@@]1(O)C(=O)SCF [fluticasone]
bioavailability [3]: no significantly greater bioavailability
tolerability ([4]; 400 μg b.i.d., 3 months): well tolerated
subjects with complete elimination of the polyps ([4]; 400 μg b.i.d., after 3 months): ~20%
proportion of subjects with improvement in summed polyp score ([4]; 4 weeks): 22%
proportion of subjects with improvement in summed polyp score ([4]; 8 weeks): 43%
proportion of subjects with improvement in summed polyp score ([4]; 12 weeks): 57%
change in polyp score ([4]; after 12 weeks): −0.98
summed polyp score ([4]; after 12 weeks, baseline 2.8): 1.8
endoscopy score for edema (median scores) [5]: −4.0

CNS(=O)(=O)Cc1ccc2[nH]cc(CCN(C)C)c2c1 [sumatriptan]
response rate (headache relief) at 30 minutes (single migraine attack; 16 mg of sumatriptan in the Breath Powered device and oral tablet placebo): 67%
response rate (headache relief) at 30 minutes (single migraine attack; 100 mg of sumatriptan orally with the placebo device): 39%
bioavailability ([6]; other: intranasal powder, 7.5 mg delivered to the side of the migraine during a GTN attack in migraineurs): 27%
Cmax ([6]; other: intranasal, 7.5 mg): 11 ng/mL
suggested response rate at 30 minutes (migraine headaches): 70%

CN(C)CCc1c[nH]c2ccc(C[C@H]3COC(=O)N3)cc12 [zolmitriptan]
nasal fraction of the total absorption ([1]; conventional nasal spray): approximately 30%
